PMC7732128, “Regulation of gene transcription by thyroid hormone receptor β agonists in clinical development for the treatment of non-alcoholic steatohepatitis (NASH)” (PLoS ONE, 2020)

Experiments:
[1] = system: THR (liver Cpt1a, Dio1, Me1, Thrsp RNA); assay: High-fat diet fed rat study: liver gene expression; assay type: in vivo; conditions: HFD rats
Description: Eighty-four male Sprague Dawley rats, approximately 8 to 11 weeks of age, were fed with either a normal diet, ND (D12450K: 10 kcal% fat, no sucrose), or high-fat diet, HFD (D12109C: 40 kcal% fat, 1.25 gm% cholesterol, 0.5 gm% sodium cholate, 12.5 gm% sucrose). After 12 days of diet consumption, baseline serum total cholesterol and low-density lipoprotein cholesterol (LDL-C) levels were measured with the cobas 6000 c501 Chemistry Analyzer (Roche) to confirm hypercholesterolemia in the HFD fed rats. Animals were then randomized into treatment groups.
Serum total cholesterol and LDL-C levels were determined as described above. […] Caudate lobes of the liver were used for analysis of hepatic total cholesterol (Abcam, ab65390) and triglyceride levels (Abcam, ab65336) via enzyme-linked immunosorbent assay. Right lateral lobes were stored in RNAlater (Invitrogen, AM7020) at -70°C until homogenization with the Scientz-48 TissueLyser LT for downstream gene expression analysis. RNA extraction was performed at WuXi AppTec (Hong Kong) Limited (China) with the RNeasy Mini Kit (Qiagen, 74106) and RNA concentration and quality was determined using the Nanodrop 2000 (Thermo Scientific); additional quality control was assessed with agarose gel electrophoresis. One μg total RNA from each sample was then reverse-transcribed using the High Capacity cDNA Reverse Transcription kit (Applied Biosystems, 4368814) and the resulting cDNA was diluted 1:5 with nuclease-free, distilled water. Gene expression was measured using TaqMan Fast Advanced Master Mix and the following TaqMan Gene Expression assays: Actb (Rn00667869_m1), Cpt1a (Rn00580702_m1), Dio1 (Rn00572183_m1), Me1 (Rn00561502_m1), Rplp1 (Rn03467157_gH), and Thrsp (Rn01511034_m1). Actb and Rplp1 served as control housekeeping genes. Ten μL reactions were run on the qTOWER³ 84. Relative quantification (RQ) of gene expression was calculated via the 2^−ΔΔCt method and statistical analysis was performed in GraphPad Prism 8.0 and Microsoft Excel.

[2] = design: method as in doi:10.1016/s0735-1097(16)31933-7; conditions: 14-day treatment, ≥ 5 mg; cited from earlier work
[3] = 4 hrs after 5.0 or 1.5 mg/kg, vs vehicle

| Structure (SMILES) | liver Cpt1a, Dio1 and Thrsp RNA levels [1, 3] | liver Me1 RNA level [1, 3] | increases in liver Cpt1a and Thrsp RNA levels ([1]; 24 hrs after 5.0 or 1.5 mg/kg) | liver Dio1 and Me1 transcription ([1]; 24 hrs after 5.0 or 1.5 mg/kg, vs vehicle) | increase in liver Dio1 expression between doses ([1]; between 1.5 and 5 mg/kg) | reduction in LDL-C [2] |
| --- | --- | --- | --- | --- | --- | --- |
| CC(C)c1cc(Oc2c(Cl)cc(-n3nc(C#N)c(=O)[nH]c3=O)cc2Cl)n[nH]c1=O [MGL-3196, 2-[3,5-dichloro-4-(5-isopropyl-6-oxo-1,6-dihydropyridazin-3-yloxy)phenyl]-3,5-dioxo-2,3,4,5-tetrahydro[1,2,4]triazine-6-carbonitrile] | activated the transcription of Cpt1a, Dio1, and Thrsp in a dose-dependent manner | no significant increase | dampened | significantly increased | 1.3 fold |  |
| Cc1cc(OCP2(=O)OCC[C@@H](c3cccc(Cl)c3)O2)cc(C)c1Cc1ccc(O)c(C(C)C)c1 (stereo partly drawn) [VK2809] |  |  |  |  |  | up to 41.2% |
